Key:
[1] = target: T1, recombinant human ALK5 (TGF-βR1) protein (Homo sapiens, UniProt P36897); assay: Biochemical ALK5 (TGF-βR1) assay to measure pKi (LANCE Ultra ULight kinase assay); details: apparent pKi, converted from pIC50 using the Cheng-Prusoff equation
T1 construct: purchased Life Technologies PR9075A
T1 sequence (P36897 34-503): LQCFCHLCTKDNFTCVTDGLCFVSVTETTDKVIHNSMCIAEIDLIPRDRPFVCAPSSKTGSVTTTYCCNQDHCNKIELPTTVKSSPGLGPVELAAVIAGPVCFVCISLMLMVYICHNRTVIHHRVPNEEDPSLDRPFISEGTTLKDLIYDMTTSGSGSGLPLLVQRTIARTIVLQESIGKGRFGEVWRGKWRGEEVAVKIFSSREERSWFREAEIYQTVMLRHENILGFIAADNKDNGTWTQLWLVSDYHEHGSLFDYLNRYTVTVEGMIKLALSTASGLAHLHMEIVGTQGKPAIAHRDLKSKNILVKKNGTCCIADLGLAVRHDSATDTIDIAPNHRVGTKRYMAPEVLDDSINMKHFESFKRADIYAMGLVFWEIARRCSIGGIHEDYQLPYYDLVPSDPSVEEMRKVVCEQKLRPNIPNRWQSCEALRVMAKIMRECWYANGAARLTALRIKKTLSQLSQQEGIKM
Experimental: The assays were performed in a 384-well plate (24 columns×16 wells/rows). An Echo®550 Liquid Handler (Labcyte) was used to prepare various intermediate concentrations of the compound of Formula I in 100% DMSO. From the intermediate concentrations, a range of concentrations (from 10 μM to […] corresponding to volumes up to 105 nL) were prepared and ejected into a final assay plate to be used to create individual dose response curves. To a separate column within the assay plate, 105 nL of DMSO in each well was used to establish a maximum assay signal. […]
Next, 2 μL of 125 μM ATP (5× final, 125 μM ATP prepared in assay buffer with 2 mM DTT) was added to the incubated mixtures, covered with a MicroClime® Environmental Lid (Product No. LLS-0310, Labcyte) and immediately transferred to 37° C. […] The plate was then read on a Perkin Elmer EnVision Plate Reader using europium specific reader settings with excitation and emission wavelengths set to 320 or 340 nm and 665 nm, respectively.
For dose-response analyses, percent inhibition versus compound concentrations were plotted, and pIC50 values were determined from a 4-parameter robust fit model with GraphPad Prism V5 Software (GraphPad Software, Inc., La Jolla, Calif.). […] Results were expressed as pIC50 (negative logarithm of IC50) and subsequently converted to pKi (negative logarithm of dissociate constant, Ki) using the Cheng-Prusoff equation. […]

[2] = test system: intestinal fibrosis in an adoptive T-cell transfer model of colitis; assay: Efficacy study in adoptive T-cell transfer model of colitis; type: in vivo, CB17 SCID mice; details: oral gavage once diarrhea and 10% body weight decrease observed; sacrifice 45 days after induction
Experimental: The compound of Formula I is expected to slow, halt or reverse the progression of intestinal fibrosis in an adoptive T-cell transfer model of colitis. Six- to 8-week old female CB17 SCID mice are tagged and weighed, then administered CD4^+ CD25^− CD62L^+ naïve T cells isolated from the spleens of Balb/C mice (IP; 1×10^6 cells) to induce colitis. Once diarrhea and a 10% or greater decrease in body weight are observed (typically around week 2), mice are treated with either vehicle control or the compound of Formula I at an appropriate amount and frequency via oral gavage (e.g., once daily). Animals are sacrificed 45 days after induction of colitis, then distal, mid and proximal sections of the colon harvested for histologic analysis, RNA extraction and cytokine measurement.

[3] = test system: monocrotaline (MCT) model of severe pulmonary hypertension; assay: Efficacy study in monocrotaline model of severe pulmonary hypertension; type: in vivo, Sprague-Dawley rats; details: MCT 60 mg/kg s.c.; oral aspiration, 2-weeks of treatment
Experimental: Male Sprague-Dawley rats are tagged, weighed, and randomly divided into control and MCT-treated groups. The rats in the MCT-treated group are administered a single dose of MCT (60 mg/kg, s.c.), then treated with either (1) vehicle control; (2) sildenafil (30 mg/kg, p.o., b.i.d.); or (3) the compound of Formula I at an appropriate amount and frequency (formulated in 3% glycerol in PBS; pH=4) via oral aspiration.
Following 2-weeks of treatment, the animals are anesthetized with ketamine/xylazine for terminal monitoring of pulmonary and systemic arterial pressures along with heart rate. The lungs of each animal are then harvested for histologic analysis.

C[C@@H]1CN(CCNc2cnc3ccc(-c4nc[nH]c4-c4cc(Cl)ccc4F)nc3c2)C[C@H](C)N1 [compound of Formula I, 6-(5-(5-chloro-2-fluorophenyl)-1H-imidazol-4-yl)-N-(2-((3S,5R)-3,5-dimethylpiperazin-1-yl)ethyl)-1,5-naphthyridin-3-amine]
Ki [1]: 0.0398 to 0.316 nM | intestinal fibrosis [2]: slow, halt or reverse intestinal fibrosis | progression of pulmonary hypertension [3]: slow, halt or reverse the progression of pulmonary hypertension

From US20210387983A1, “CRYSTALLINE ALK5 INHIBITORS AND USES THEREOF” (THERAVANCE BIOPHARMA R&D IP, LLC, priority 2020, published 2021)
